Test results taken from patent US7393865B2, “Sleep inducing compounds and methods relating thereto” (Neurocrine Biosciences, Inc., priority 2004, dated 2008).

Target: T1, human H1 receptor (Homo sapiens, UniProt P35367)
T1 construct: expressed in transfected cells; host or cells: CHO cells (crude membranes)
Experiment: Human histamine H1 receptor binding assay
Details: competition with 1.5 nM [pyridinyl-5-3H] Pyrilamine, crude membranes of CHO cells transfected with human H1 receptor; Ki from IC50 by Cheng-Prusoff
Experimental: Compounds of the present invention may be evaluated for binding to the histamine H1 receptor by a standard binding assay. […] Pyrilamine (˜30 Ci/mmol, Amersham TRK608) in the presence of varying concentrations of competing ligand. Non-specific binding is determined in the presence of excess (1 μM) doxepin. Bound and free ligand are separated by rapid vacuum filtration using a Packard 96-well cell harvester onto UniFilter GF/C filter plates (PerkinElmer) that has been pretreated with 1% polyethyleneimine. The filter plates are then washed with 600 μl phosphate buffered saline containing 0.01% (v/v) Triton-X100. Bound radioligand is determined by scintillation counting using a TopCount-NXT (Packard). Binding data is analyzed by nonlinear, least-squares curve fitting algorithms using GraphPad Prism (GraphPad Software, Inc. San Diego, Calif.) or ActivityBase (IDBS, Guildford, Surrey, UK).

T1 sequence (P35367 whole entry): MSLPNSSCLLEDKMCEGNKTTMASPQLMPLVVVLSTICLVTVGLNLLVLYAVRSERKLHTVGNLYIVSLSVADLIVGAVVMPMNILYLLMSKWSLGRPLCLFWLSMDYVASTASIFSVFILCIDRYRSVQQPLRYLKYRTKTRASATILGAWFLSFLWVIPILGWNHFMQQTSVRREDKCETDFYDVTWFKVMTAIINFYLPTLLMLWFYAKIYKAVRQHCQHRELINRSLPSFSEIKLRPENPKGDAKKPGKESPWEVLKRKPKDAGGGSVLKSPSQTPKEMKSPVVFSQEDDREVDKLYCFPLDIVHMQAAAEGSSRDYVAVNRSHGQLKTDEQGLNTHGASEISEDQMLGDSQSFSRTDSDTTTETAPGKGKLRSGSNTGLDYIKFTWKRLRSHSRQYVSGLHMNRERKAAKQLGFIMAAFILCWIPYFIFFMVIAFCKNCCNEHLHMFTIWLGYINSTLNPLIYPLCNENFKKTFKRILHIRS

Ki, ≤ 1000 nM:
CC(c1cscn1)c1c(CCN(C)C)sc2ccccc12 (stereo in doubt) [Compound 16-4, Dimethyl-{2-[3-((R)-1-thiazol-4-yl-ethyl)-benzo[b]thiophen-2-yl]-ethyl}-amine]
CN(C)CCc1sc2ccccc2c1Cc1ccc(F)cc1 [Compound 3-2, {2-[3-(4-Fluoro-benzyl)-benzo[b]thiophen-2-yl]-ethyl}-dimethyl-amine]
CN(C)CCc1sc2ccccc2c1C(C)(O)c1ccc(F)cc1 (centres unmarked) [Compound 3-3, 1-[2-(2-Dimethylamino-ethyl)-benzo[b]thiophen-3-yl]-1-(4-fluoro-phenyl)-ethanol]
CC(c1ccc(F)cc1)c1c(CCN(C)C)sc2ccccc12 (centres unmarked) [Compound 3-4, (2-{3-[1-(4-Fluoro-phenyl)-ethyl]-benzo[b]thiophen-2-yl}-ethyl)-dimethyl-amine]
Cc1ccc2c(C(C)c3ccccn3)c(CCN(C)C)sc2c1 (centres unmarked) [Compound 4-2, Dimethyl-{2-[6-methyl-3-(1-pyridin-2-yl-ethyl)-benzo[b]thiophen-2-yl]-ethyl}-amine]
Cc1ccc2c([C@@H](C)c3ccccn3)c(CCN(C)C)sc2c1 [Compound 4-3, Dimethyl-{2-[6-methyl-3-((R)-1-pyridin-2-yl-ethyl)-benzo[b]thiophen-2-yl]-ethyl}-amine]
C=C(c1ccccn1)c1c(CCN(C)C)sc2cc(C)ccc12 [Compound 4-6, Dimethyl-{2-[6-methyl-3-(1-pyridin-2-yl-vinyl)-benzo[b]thiophen-2-yl]-ethyl}-amine]
Cc1ccnc(C(C)c2c(CCN(C)C)sc3ccccc23)c1 (centres unmarked) [Compound 5-3, Dimethyl-(2-{3-[1-(4-methyl-pyridin-2-yl)-ethyl]-benzo[b]thiophen-2-yl}-ethyl)-amine]
CN(C)CCc1sc2ccccc2c1C(C)(O)c1ccccn1 (centres unmarked) [Compound 6-1, 1-[2-(2-Dimethylamino-ethyl)-benzo[b]thiophen-3-yl]-1-pyridin-2-yl-ethanol]
C=C(c1ccccn1)c1c(CCN(C)C)sc2ccccc12 [Compound 6-2, Dimethyl-{2-[3-(1-pyridin-2-yl-vinyl)-benzo[b]thiophen-2-yl]-ethyl}-amine]
CC(c1ccccn1)c1c(CCN(C)C)sc2ccccc12 (centres unmarked) [Compound 6-3, Dimethyl-{2-[3-(1-pyridin-2-yl-ethyl)-benzo[b]thiophen-2-yl]-ethyl}-amine]
C=C(c1cccnc1)c1c(CCN(C)C)sc2ccccc12 [Compound 6-4, Dimethyl-{2-[3-(1-pyridin-3-yl-vinyl)-benzo[b]thiophen-2-yl]-ethyl}-amine]
C=C(c1ccncc1)c1c(CCN(C)C)sc2ccccc12 [Compound 6-5, Dimethyl-{2-[3-(1-pyridin-4-yl-vinyl)-benzo[b]thiophen-2-yl]-ethyl}-amine]
CC(c1ccncc1)c1c(CCN(C)C)sc2ccccc12 (centres unmarked) [Compound 6-7, Dimethyl-{2-[3-(1-pyridin-4-yl-ethyl)-benzo[b]thiophen-2-yl]-ethyl}-amine]
COc1cccnc1C(C)c1c(CCN(C)C)sc2ccccc12 (centres unmarked) [Compound 6-10, Dimethyl-(2-{3-[1-(3-methoxy-pyridin-2-yl)-ethyl]-benzo[b]thiophen-2-yl}-ethyl)-amine]
CC(c1ccc(F)cn1)c1c(CCN(C)C)sc2ccccc12 (centres unmarked) [Compound 7-3, (2-{3-[1-(5-Fluoro-pyridin-2-yl)-ethyl]-benzo[b]thiophen-2-yl}-ethyl)-dimethyl-amine]
C[C@@H](c1ccc(F)cn1)c1c(CCN(C)C)sc2ccccc12 [Compound 7-4, (2-{3-[(R)-1-(5-Fluoro-pyridin-2-yl)-ethyl]-benzo[b]thiophen-2-yl}-ethyl)-dimethyl-amine]
C[C@H](c1ccc(F)cn1)c1c(CCN(C)C)sc2ccccc12 [Compound 7-5, (2-{3-[(S)-1-(5-Fluoro-pyridin-2-yl)-ethyl]-benzo[b]thiophen-2-yl}-ethyl)-dimethyl-amine]
CC(c1nccs1)c1c(CCN(C)C)sc2ccccc12 (centres unmarked) [Compound 8-3, Dimethyl-{2-[3-(1-thiazol-2-yl-ethyl)-benzo[b]thiophen-2-yl]-ethyl}-amine]
CNCCc1sc2ccccc2c1C(C)c1ccccn1 (centres unmarked) [Compound 9-1, Methyl-{2-[3-(1-pyridin-2-yl-ethyl)-benzo[b]thiophen-2-yl]-ethyl}-amine]
CCCN(C)CCc1sc2ccccc2c1C(C)c1ccccn1 (centres unmarked) [Compound 9-2, Methyl-propyl-{2-[3-(1-pyridin-2-yl-ethyl)-benzo[b]thiophen-2-yl]-ethyl}-amine]
Cc1ccc(C(C)c2c(CCN(C)C)sc3ccccc23)cn1 (centres unmarked) [Compound 10-3, Dimethyl-(2-{3-[1-(6-methyl-pyridin-3-yl)-ethyl]-benzo[b]thiophen-2-yl}-ethyl)-amine]
CC(c1cnccn1)c1c(CCN(C)C)sc2ccccc12 (centres unmarked) [Compound 11-2, Dimethyl-{2-[3-(1-pyrazin-2-yl-ethyl)-benzo[b]thiophen-2-yl]-ethyl}-amine]
C[C@H](c1ccccn1)c1c(CCN(C)C)sc2ccccc12 [Compound 12-1, Dimethyl-{2-[3-((S)-1-pyridin-2-yl-ethyl)-benzo[b]thiophen-2-yl]-ethyl}-amine]
C[C@@H](c1ccccn1)c1c(CCN(C)C)sc2ccccc12 [Compound 12-2, Dimethyl-{2-[3-((R)-1-pyridin-2-yl-ethyl)-benzo[b]thiophen-2-yl]-ethyl}-amine]
CN(C)CCc1sc2ccccc2c1Cc1ccccn1 [Compound 13-3, Dimethyl-[2-(3-pyridin-2-ylmethyl-benzo[b]thiophen-2-yl)-ethyl]-amine]
CN(C)CCc1sc2ccccc2c1Cc1cncnc1 [Compound 13-4, Dimethyl-[2-(3-pyrimidin-5-ylmethyl-benzo[b]thiophen-2-yl)-ethyl]-amine]
CN(C)CCc1sc2ccccc2c1Cc1nccs1 [Compound 13-5, Dimethyl-[2-(3-thiazol-2-ylmethyl-benzo[b]thiophen-2-yl)-ethyl]-amine]
CN(C)CCc1sc2ccccc2c1Cc1cscn1 [Compound 13-6, Dimethyl-[2-(3-thiazol-4-ylmethyl-benzo[b]thiophen-2-yl)-ethyl]-amine]
COc1cccnc1Cc1c(CCN(C)C)sc2ccccc12 [Compound 13-7, {2-[3-(3-Methoxy-pyridin-2-ylmethyl)-benzo[b]thiophen-2-yl]-ethyl}-dimethyl-amine]
CN(C)CCc1sc2ccccc2c1Cc1cccc(O)n1 [Compound 13-8, 6-[2-(2-Dimethylamino-ethyl)-benzo[b]thiophen-3-ylmethyl]-pyridin-2-ol]
CN(C)CCc1sc2ccccc2c1Cc1cnccn1 [Compound 13-9, Dimethyl-[2-(3-pyrazin-2-ylmethyl-benzo[b]thiophen-2-yl)-ethyl]-amine]
